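Protocol summary: plate cells (96-well), add compound at 5 concentrations, incubate 48 h, interpolate endpoints linearly. GI50 = concentration required for 50% inhibition of growth.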 The source made the active and inactive calls. Rule as the data show it: active = GI50 up to about 1.1 µM and inactive = higher.
What was measured:
Assay in all cases: growth of human tumour cells (NCI), 48 h
A498 = test system: A498
ACHN = test system: ACHN
CAKI-1 = test system: CAKI-1
HCC 2998 = test system: HCC 2998
HCT-15 = test system: HCT-15
HT-29 = test system: HT-29
NCI-H226 = test system: NCI-H226
NCI-H23 = test system: NCI-H23
NCI-H522 = test system: NCI-H522
NCI/ADR-RES = test system: NCI/ADR-RES
OVCAR-4 = test system: OVCAR-4
OVCAR-5 = test system: OVCAR-5
SF-268 = test system: SF-268
SF-539 = test system: SF-539
SK-MEL-28 = test system: SK-MEL-28
SK-OV-3 = test system: SK-OV-3
SNB-19 = test system: SNB-19
SNB-75 = test system: SNB-75
TK-10 = test system: TK-10
UACC-62 = test system: UACC-62

Structure (SMILES)	GI50 (A498)	GI50 (ACHN)	GI50 (CAKI-1)	GI50 (HCC 2998)	GI50 (HCT-15)	GI50 (HT-29)	GI50 (NCI-H226)	GI50 (NCI-H23)	GI50 (NCI-H522)	GI50 (NCI/ADR-RES)	GI50 (OVCAR-4)	GI50 (OVCAR-5)	GI50 (SF-268)	GI50 (SF-539)	GI50 (SK-MEL-28)	GI50 (SK-OV-3)	GI50 (SNB-19)	GI50 (SNB-75)	GI50 (TK-10)	GI50 (UACC-62)
CC(=O)NC1=C(OS(=O)(=O)c2ccc(C)cc2)CN(C)C1=O	4.25 µM (inactive)	3.32 µM (inactive)	3.86 µM (inactive)	2.43 µM (inactive)	2.96 µM	4.92 µM (inactive)	8.73 µM (inactive)	3.72 µM (inactive)	2.82 µM (inactive)	3.91 µM (inactive)	6.27 µM (inactive)	16.7 µM (inactive)	5.04 µM (inactive)	2.06 µM (inactive)	10.3 µM (inactive)	7.57 µM (inactive)	3.43 µM (inactive)	4.31 µM (inactive)	1.94 µM (inactive)	6.79 µM (inactive)
COc1cc2nncc(SCc3ccc(Cl)c(Cl)c3)c2cc1OC	> 100 µM (inactive)	> 48.4 µM (inactive)	> 73.8 µM (inactive)	> 100 µM (inactive)	> 31.3 µM	> 100 µM (inactive)	> 100 µM (inactive)	> 100 µM (inactive)	23.2 µM (inactive)	> 100 µM (inactive)	> 49.9 µM (inactive)	98.4 µM (inactive)	> 69.5 µM (inactive)	35.6 µM (inactive)	> 100 µM (inactive)	> 71.3 µM (inactive)	45.9 µM (inactive)	24.4 µM (inactive)	82.4 µM (inactive)	14 µM (inactive)
O=[N+]([O-])/C=C/c1c(Cl)cccc1Cl	16.4 µM (inactive)	2.48 µM (inactive)	3.66 µM (inactive)	3.45 µM (inactive)	1.48 µM	2.45 µM (inactive)	10 µM (inactive)	4.46 µM (inactive)	1.61 µM (inactive)	1.96 µM (inactive)	3.56 µM (inactive)	8.95 µM (inactive)	4.32 µM (inactive)	2.37 µM (inactive)	4.97 µM (inactive)	20.8 µM (inactive)	5.28 µM (inactive)	18 µM (inactive)	2.67 µM (inactive)	2.77 µM (inactive)
O=C1c2ccccc2C(=O)N1c1ccc(Cc2ccc(N3C(=O)c4ccccc4C3=O)cc2)cc1	> 100 µM (inactive)	> 100 µM (inactive)	> 100 µM (inactive)	> 100 µM (inactive)	> 100 µM	> 100 µM (inactive)	> 100 µM (inactive)	> 100 µM (inactive)	> 100 µM (inactive)	> 100 µM (inactive)	> 100 µM (inactive)	> 100 µM (inactive)	> 100 µM (inactive)	> 80.9 µM (inactive)	> 100 µM (inactive)	> 100 µM (inactive)	> 100 µM (inactive)	> 84.5 µM (inactive)	> 100 µM (inactive)	> 100 µM (inactive)
C=C1c2nc3ccccc3n2C=C(c2ccc(OC)cc2)N1c1ccc(OCCN2CCCCC2)cc1	35.7 µM (inactive)	8.24 µM (inactive)	13.4 µM (inactive)	16 µM (inactive)	4.74 µM	20 µM (inactive)	28.2 µM (inactive)	6.32 µM (inactive)	> 100 µM (inactive)	4.73 µM (inactive)	11.6 µM (inactive)	> 74.1 µM (inactive)	> 30.4 µM (inactive)	20.2 µM (inactive)	31.2 µM (inactive)	49.1 µM (inactive)	11.3 µM (inactive)	50.5 µM (inactive)	14.8 µM (inactive)	20.7 µM (inactive)
Cc1ccc(C2=Nn3c(nc4sc(-c5ccccc5)cc4c3=O)SC2)cc1	> 100 µM (inactive)	> 100 µM (inactive)	> 100 µM (inactive)	> 100 µM (inactive)	> 100 µM	> 100 µM (inactive)	> 100 µM (inactive)	> 100 µM (inactive)	> 100 µM (inactive)	> 100 µM (inactive)	> 100 µM (inactive)	> 100 µM (inactive)	> 100 µM (inactive)	> 100 µM (inactive)	> 100 µM (inactive)	> 100 µM (inactive)	–	> 100 µM (inactive)	> 100 µM (inactive)	> 100 µM (inactive)
CC(C)NC(=O)OCc1c(COC(=O)NC(C)C)n(C)c2c1ccc1sccc12	16.3 µM (inactive)	7 µM (inactive)	4.8 µM (inactive)	15.2 µM (inactive)	16.9 µM	24.2 µM (inactive)	2.67 µM (inactive)	7.4 µM (inactive)	3.65 µM (inactive)	> 25.4 µM (inactive)	12.8 µM (inactive)	30.6 µM (inactive)	6.18 µM (inactive)	12.4 µM (inactive)	18.1 µM (inactive)	24.9 µM (inactive)	20.8 µM (inactive)	14.4 µM (inactive)	18.6 µM (inactive)	10.2 µM (inactive)

— ChEMBL document CHEMBL1201862, “PubChem BioAssay data set” (2004)
